According to patent US8952024B2, “Herbicidal pyrimidone derivatives” (E I du Pont de Nemours and Company, priority 2009, dated 2015):

Columns and labels:
Test in all cases: Test B pre-/postemergence plant response
Type in all cases: in vivo
[1] = tested on: wheat (Triticum aestivum); details: for Wheat plant response rating (0 to 100 scale): 62 g ai/ha, postemergence, 0 is no effect, 100 is complete control, 13 to 15 days; for Plant response rating, Wheat: Postemergence, 125 g ai/ha, scale 0 to 100 (0 no effect, 100 complete control)
Procedure, shortened: (§1)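 Greenhouse herbicide screen. Pre- and postemergence (1- to 4-leaf) spray of compound in solvent/surfactant mixture; loam–sand soil for pre, peat/vermiculite medium for post. Visual control rating 0–100 at 13 to 15 days after treatment.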

[2] = tested on: kochia (Kochia scoparia); details: for Kochia plant response rating (0 to 100 scale): 62 g ai/ha, 0 is no effect, 13 to 15 days
Procedure, shortened: as §1

[3] = tested on: woolly cupgrass (Eriochloa villosa); details: for Cupgrass, Woolly plant response rating (0 to 100 scale): 62 g ai/ha, 0 is no effect, 13 to 15 days
Procedure, shortened: as §1

[4] = tested on: bermudagrass (Cynodon dactylon); details: for Bermudagrass plant response rating (0 to 100 scale): 62 g ai/ha, 0 is no effect, 13 to 15 days
Procedure, shortened: as §1

[5] = tested on: soybean (Glycine max); details: for Soybean plant response rating (0 to 100 scale): 62 g ai/ha, postemergence, 0 is no effect, 100 is complete control, 13 to 15 days; for Plant response rating, Soybean: Postemergence, scale 0 to 100 (0 no effect, 100 complete control)
Procedure, shortened: as §1

[6] = tested on: large crabgrass (Digitaria sanguinalis); details: for Crabgrass, Large plant response rating (0 to 100 scale): 62 g ai/ha, 0 is no effect, 13 to 15 days
Procedure, shortened: as §1

[7] = tested on: yellow nutsedge (Cyperus esculentus); details: for Nutsedge, Yellow plant response rating (0 to 100 scale): 62 g ai/ha, 0 is no effect, 13 to 15 days
Procedure, shortened: as §1

[8] = tested on: downy bromegrass (Bromus tectorum); details: for Bromegrass, Downy plant response rating (0 to 100 scale): 62 g ai/ha, 0 is no effect, 13 to 15 days
Procedure, shortened: as §1

[9] = tested on: cocklebur (Xanthium strumarium); details: for Cocklebur plant response rating (0 to 100 scale): 62 g ai/ha, 0 is no effect, 13 to 15 days
Procedure, shortened: as §1

[10] = tested on: morningglory (Ipomoea coccinea); details: for Morningglory plant response rating (0 to 100 scale): 62 g ai/ha, 0 is no effect, 13 to 15 days
Procedure, shortened: as §1

[11] = tested on: Italian ryegrass (Lolium multiflorum); details: for Ryegrass, Italian plant response rating (0 to 100 scale): 62 g ai/ha, postemergence, 0 is no effect, 100 is complete control, 13 to 15 days; for Plant response rating, Ryegrass, Italian: Postemergence, scale 0 to 100 (0 no effect, 100 complete control)
Procedure, shortened: as §1

[12] = tested on: velvetleaf (Abutilon theophrasti); details: for Velvetleaf plant response rating (0 to 100 scale): 62 g ai/ha, postemergence, 0 is no effect, 100 is complete control, 13 to 15 days; for Plant response rating, Velvetleaf: Postemergence, scale 0 to 100 (0 no effect, 100 complete control)
Procedure, shortened: as §1

[13] = 31 g ai/ha, postemergence, scale 0 to 100, 0 is no effect, 100 is complete control
[14] = postemergence, 100 is complete control
[15] = Postemergence, 125 g ai/ha, scale 0 to 100 (0 no effect, 100 complete control)
[16] = Postemergence, 250 g ai/ha, scale 0 to 100 (0 no effect, 100 complete control)

CCCn1c(-c2ccc(F)cc2)ncc(C(=O)C2=C(O)CCCC2=O)c1=O [Compound 102]
Wheat plant response rating (0 to 100 scale) [1]: 10
Plant response rating, Wheat [1]: 20
Plant response rating, Kochia [2, 13]: 65
Kochia plant response rating (0 to 100 scale) [2, 14]: 70
Plant response rating, Kochia [2, 15]: 100
Plant response rating, Kochia [2, 16]: 100
Plant response rating, Cupgrass, Woolly [3, 13]: 70
Cupgrass, Woolly plant response rating (0 to 100 scale) [3, 14]: 75
Plant response rating, Cupgrass, Woolly [3, 15]: 75
Plant response rating, Cupgrass, Woolly [3, 16]: 85
Plant response rating, Bermudagrass [4, 13]: 80
Bermudagrass plant response rating (0 to 100 scale) [4, 14]: 85
Plant response rating, Bermudagrass [4, 15]: 85
Plant response rating, Bermudagrass [4, 16]: 100
Soybean plant response rating (0 to 100 scale) [5]: 85
Plant response rating, Soybean ([5]; 125 g ai/ha): 95
Plant response rating, Soybean ([5]; 250 g ai/ha): 100
Plant response rating, Crabgrass, Large [6, 13]: 70
Crabgrass, Large plant response rating (0 to 100 scale) [6, 14]: 80
Plant response rating, Crabgrass, Large [6, 15]: 85
Plant response rating, Crabgrass, Large [6, 16]: 90
Plant response rating, Nutsedge, Yellow [7, 13]: 45
Nutsedge, Yellow plant response rating (0 to 100 scale) [7, 14]: 65
Plant response rating, Nutsedge, Yellow [7, 15]: 75
Plant response rating, Nutsedge, Yellow [7, 16]: 80
Plant response rating, Bromegrass, Downy [8, 13]: 0
Bromegrass, Downy plant response rating (0 to 100 scale) [8, 14]: 10
Plant response rating, Bromegrass, Downy [8, 15]: 10
Plant response rating, Bromegrass, Downy [8, 16]: 30
Plant response rating, Cocklebur [9, 13]: 90
Cocklebur plant response rating (0 to 100 scale) [9, 14]: 95
Plant response rating, Cocklebur [9, 15]: 100
Plant response rating, Cocklebur [9, 16]: 100
Plant response rating, Morningglory [10, 13]: 65
Morningglory plant response rating (0 to 100 scale) [10, 14]: 100
Plant response rating, Morningglory [10, 15]: 100
Plant response rating, Morningglory [10, 16]: 100
Ryegrass, Italian plant response rating (0 to 100 scale) [11]: 0
Plant response rating, Ryegrass, Italian ([11]; 125 g ai/ha): 5
Plant response rating, Ryegrass, Italian ([11]; 250 g ai/ha): 10
Velvetleaf plant response rating (0 to 100 scale) [12]: 100
Plant response rating, Velvetleaf ([12]; 125 g ai/ha): 100
Plant response rating, Velvetleaf ([12]; 250 g ai/ha): 100

COCC(C)n1c(-c2ccccc2)ncc(C(=O)C2=C(O)CCCC2=O)c1=O (centres unmarked) [Compound 107]
Wheat plant response rating (0 to 100 scale) [1]: 5
Plant response rating, Wheat [1]: 5
Plant response rating, Kochia [2, 13]: 98
Kochia plant response rating (0 to 100 scale) [2, 14]: 98
Plant response rating, Kochia [2, 15]: 100
Plant response rating, Kochia [2, 16]: 100
Plant response rating, Cupgrass, Woolly [3, 13]: 65
Cupgrass, Woolly plant response rating (0 to 100 scale) [3, 14]: 65
Plant response rating, Cupgrass, Woolly [3, 15]: 75
Plant response rating, Cupgrass, Woolly [3, 16]: 80
Plant response rating, Bermudagrass [4, 13]: 75
Bermudagrass plant response rating (0 to 100 scale) [4, 14]: 80
Plant response rating, Bermudagrass [4, 15]: 95
Plant response rating, Bermudagrass [4, 16]: 98
Soybean plant response rating (0 to 100 scale) [5]: 98
Plant response rating, Soybean ([5]; 125 g ai/ha): 100
Plant response rating, Soybean ([5]; 250 g ai/ha): 100
Plant response rating, Crabgrass, Large [6, 13]: 75
Crabgrass, Large plant response rating (0 to 100 scale) [6, 14]: 85
Plant response rating, Crabgrass, Large [6, 15]: 90
Plant response rating, Crabgrass, Large [6, 16]: 95
Plant response rating, Nutsedge, Yellow [7, 13]: 75
Nutsedge, Yellow plant response rating (0 to 100 scale) [7, 14]: 75
Plant response rating, Nutsedge, Yellow [7, 15]: 75
Plant response rating, Nutsedge, Yellow [7, 16]: 85
Plant response rating, Bromegrass, Downy [8, 13]: 0
Bromegrass, Downy plant response rating (0 to 100 scale) [8, 14]: 5
Plant response rating, Bromegrass, Downy [8, 15]: 10
Plant response rating, Bromegrass, Downy [8, 16]: 30
Plant response rating, Cocklebur [9, 13]: 98
Cocklebur plant response rating (0 to 100 scale) [9, 14]: 100
Plant response rating, Cocklebur [9, 15]: 100
Plant response rating, Cocklebur [9, 16]: 100
Plant response rating, Morningglory [10, 13]: 100
Morningglory plant response rating (0 to 100 scale) [10, 14]: 100
Plant response rating, Morningglory [10, 15]: 100
Plant response rating, Morningglory [10, 16]: 100
Ryegrass, Italian plant response rating (0 to 100 scale) [11]: 0
Plant response rating, Ryegrass, Italian ([11]; 125 g ai/ha): 5
Plant response rating, Ryegrass, Italian ([11]; 250 g ai/ha): 5
Velvetleaf plant response rating (0 to 100 scale) [12]: 100
Plant response rating, Velvetleaf ([12]; 125 g ai/ha): 100
Plant response rating, Velvetleaf ([12]; 250 g ai/ha): 100
